Source: ChEMBL document CHEMBL5154881, “Discovery of First-in-Class TAK1-MKK3 Protein-Protein Interaction (PPI) Inhibitor (R)-STU104 for the Treatment of Ulcerative Colitis through Modulating TNF-α Production” (J Med Chem, 2022)

How the values were obtained:
[1] = molecular target: T1, Mitogen-activated protein kinase kinase kinase 7 (Homo sapiens) (UniProt O43318); assay: Inhibition of human TAK1 at 50 uM using casein as substrate incubated for 40 mins in presence of [gamma-33P]-ATP by scintillation counting method relative to control
T1 sequence (whole entry): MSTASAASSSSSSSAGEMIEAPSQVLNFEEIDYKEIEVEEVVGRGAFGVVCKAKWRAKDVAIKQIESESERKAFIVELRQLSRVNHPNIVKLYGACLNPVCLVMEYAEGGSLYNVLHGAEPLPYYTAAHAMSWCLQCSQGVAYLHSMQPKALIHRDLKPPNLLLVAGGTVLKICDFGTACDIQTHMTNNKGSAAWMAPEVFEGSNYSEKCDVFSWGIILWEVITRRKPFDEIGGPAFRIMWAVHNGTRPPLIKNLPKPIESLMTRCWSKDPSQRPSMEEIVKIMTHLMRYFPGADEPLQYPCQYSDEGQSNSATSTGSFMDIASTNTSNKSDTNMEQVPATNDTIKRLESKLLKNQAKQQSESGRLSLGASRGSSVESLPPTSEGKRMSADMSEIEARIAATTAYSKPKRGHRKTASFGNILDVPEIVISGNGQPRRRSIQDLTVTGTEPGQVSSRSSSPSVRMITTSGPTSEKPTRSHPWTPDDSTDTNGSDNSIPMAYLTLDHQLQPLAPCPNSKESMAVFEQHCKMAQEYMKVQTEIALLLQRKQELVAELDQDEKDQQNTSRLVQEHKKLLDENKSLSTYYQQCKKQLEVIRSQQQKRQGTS

Mus musculus [2] = assay: Antiinflammatory activity against DSS-induced C57BL/6 mouse model of acute ulcerative colitis assessed as reduction in serum IL-6 levels administered intragastrically via gavage measured after 7 days by ELISA; assay type: functional, organism-based; conditions: dose 1-10 mg/kg, route ig, time 7.0 day, DDE = dose-dependent effect
Mus musculus [3] = assay: Antiinflammatory activity against IL-10-/- C57BL/6 mouse model of ulcerative colitis assessed as inhibition ratio of IL-23 protein expression at 3 mg/kg, IG via gavage and measured after 8 weeks by ELISA relative to control; assay type: functional; set-up: scale not given: the % may be the effect or the level left
Mus musculus [4] = assay: Antiinflammatory activity against DSS-induced C57BL/6 mouse model of acute ulcerative colitis assessed as inhibition ratio of IL-1beta mRNA expression in colon tissue at 1 mg/kg, IG via gavage measured after 7 days by RT-qPCR analysis relative to control; assay type: functional; set-up: scale not given: the % may be the effect or the level left; conditions: time 7 day
Mus musculus [5] = assay: Antiinflammatory activity against DSS-induced C57BL/6 mouse model of acute ulcerative colitis assessed as inhibition ratio of IL-1beta protein expression at 1 mg/kg, IG via gavage measured after 7 days by ELISA relative to control; assay type: functional; set-up: scale not given: the % may be the effect or the level left; conditions: time 7 day
RAW264.7 = assay: Inhibition of MKK3-p38-elF4E signaling pathway in mouse RAW264.7 cells assessed as reduction in LPS-induced Mnk1 phosphorylation treated for 1.5 hrs followed by LPS treatment for 1 hr by Western blot analysis; assay type: cell-based; conditions: dose 3.125-12.5 µmol/L, time 2.5 hrs, DDE = dose-dependent effect
Mus musculus [6] = assay: Antiinflammatory activity against IL-10-/- C57BL/6 mouse model of acute ulcerative colitis assessed as decrease in serum IL-23 levels administered intragastrically via gavage measured after 8 weeks by ELISA; assay type: functional, organism-based; conditions: dose 3-10 mg/kg, route ig, DDE = dose-dependent effect
Mus musculus [7] = assay: Anti-ulcerative colitis activity in IL-10-/- C57BL/6 mouse model of ulcerative colitis assessed as body weight recovery ratio at 1 mg/kg, IG via gavage for 8 weeks and measured everyday relative to control; assay type: functional
Mus musculus [8] = assay: Antiinflammatory activity against IL-10-/- C57BL/6 mouse model of ulcerative colitis assessed as inhibition ratio of IL-23 mRNA expression in colon tissue at 10 mg/kg, IG via gavage and measured after 8 weeks by RT-qPCR analysis relative to control; assay type: functional; set-up: scale not given: the % may be the effect or the level left
[9] = AUC (0 to infinity) in 12 hr starved C57 mouse at 5 mg/kg, iv measured for 0.083 to 24 hrs post-dose by LC-MS-MS analysis; assay type: ADME, organism-based; set-up: time upper 24 hrs, time lower 0.083 hrs, dose 5 mg/kg, route iv; conditions: in vivo
Mus musculus [10] = assay: Antiinflammatory activity against IL-10-/- C57BL/6 mouse model of ulcerative colitis assessed as inhibition ratio of TNF-alpha protein expression at 10 mg/kg, IG via gavage and measured after 8 weeks by ELISA relative to control; assay type: functional; set-up: scale not given: the % may be the effect or the level left
[11] = MRT (0 to infinity) in 12 hr starved C57 mouse at 5 mg/kg, iv measured for 0.083 to 24 hrs post-dose by LC-MS-MS analysis; assay type: ADME, organism-based; conditions: in vivo, time 0.083-24 hrs
Mus musculus [12] = assay: Antiinflammatory activity against IL-10-/- C57BL/6 mouse model of ulcerative colitis assessed as inhibition ratio of IL-6 protein expression at 3 mg/kg, IG via gavage and measured after 8 weeks by ELISA relative to control; assay type: functional; set-up: scale not given: the % may be the effect or the level left
[13] = molecular target: Voltage-gated inwardly rectifying potassium channel KCNH2 (Homo sapiens, UniProt Q12809); assay: Inhibition of hERG; assay type: toxicity
[14] = Toxicity in C57 mouse assessed as liver damage at 50 to 500 mg/kg, po administered daily for 14 days; assay type: organism-based; conditions: in vivo, 336 h, dose 50-500 mg/kg, time 14 day
Mus musculus [15] = assay: Inhibition of MKK3-p38 MAPK-elF4E signaling pathway in C57BL/6 mouse model of acute ulcerative colitis assessed as decrease in DSS-induced p38 MAPK phosphorylation in colon tissue administered intragastrically via gavage measured after 7 days by Western blot analysis; conditions: dose 1-50 mg/kg, time 7.0 day, DDE = dose-dependent effect
Mus musculus [16] = assay: Anti-ulcerative colitis activity against DSS-induced ulcerative colitis C57BL/6 mouse model assessed as reduction in DAI recovery score ratio at 50 mg/kg, IG via gavage administered for 7 days and measured everyday relative to control; assay type: functional; set-up: scale not given: the % may be the effect or the level left; conditions: time 7 day
[17] = Cmax in 12 hr starved C57 mouse at 30 mg/kg, po measured for 0.083 to 24 hrs post-dose by LC-MS-MS analysis; assay type: ADME, organism-based; set-up: dose 30 mg/kg, time 0.083-24 hrs, route po; conditions: in vivo
Mus musculus [18] = assay: Inhibition of MKK3-p38 MAPK-elF4E signaling pathway in C57BL/6 mouse model of acute ulcerative colitis assessed as decrease in DSS-induced Mnk1 phosphorylation in colon tissue administered intragastrically via gavage measured after 7 days by Western blot analysis; conditions: dose 1-50 mg/kg, time 7.0 day, DDE = dose-dependent effect
Mus musculus [19] = assay: Antiinflammatory activity against DSS-induced C57BL/6 mouse model of acute ulcerative colitis assessed as inhibition ratio of IL-6 protein expression at 10 mg/kg, IG via gavage measured after 7 days by ELISA relative to control; assay type: functional; set-up: scale not given: the % may be the effect or the level left; conditions: time 7 day
[20] = AUC (0 to infinity) in 12 hr starved C57 mouse at 30 mg/kg, po measured for 0.083 to 24 hrs post-dose by LC-MS-MS analysis; assay type: ADME, organism-based; set-up: time upper 24 hrs, dose 30 mg/kg, time lower 0.083 hrs, route po; conditions: in vivo
Mus musculus [21] = assay: Antiinflammatory activity against DSS-induced C57BL/6 mouse model of acute ulcerative colitis assessed as inhibition of IL-6 mRNA expression in colon tissue administered intragastrically via gavage measured after 7 days by RT-qPCR analysis; assay type: functional, organism-based; conditions: route ig, time 7.0 day, DDE = dose-dependent effect
Mus musculus [22] = assay: Antiinflammatory activity against DSS-induced C57BL/6 mouse model of acute ulcerative colitis assessed as inhibition ratio of IL-6 protein expression at 3 mg/kg, IG via gavage measured after 7 days by ELISA relative to control; assay type: functional; set-up: scale not given: the % may be the effect or the level left; conditions: time 7 day

Chain of Voltage-gated inwardly rectifying potassium channel KCNH2 (Q12809 whole entry): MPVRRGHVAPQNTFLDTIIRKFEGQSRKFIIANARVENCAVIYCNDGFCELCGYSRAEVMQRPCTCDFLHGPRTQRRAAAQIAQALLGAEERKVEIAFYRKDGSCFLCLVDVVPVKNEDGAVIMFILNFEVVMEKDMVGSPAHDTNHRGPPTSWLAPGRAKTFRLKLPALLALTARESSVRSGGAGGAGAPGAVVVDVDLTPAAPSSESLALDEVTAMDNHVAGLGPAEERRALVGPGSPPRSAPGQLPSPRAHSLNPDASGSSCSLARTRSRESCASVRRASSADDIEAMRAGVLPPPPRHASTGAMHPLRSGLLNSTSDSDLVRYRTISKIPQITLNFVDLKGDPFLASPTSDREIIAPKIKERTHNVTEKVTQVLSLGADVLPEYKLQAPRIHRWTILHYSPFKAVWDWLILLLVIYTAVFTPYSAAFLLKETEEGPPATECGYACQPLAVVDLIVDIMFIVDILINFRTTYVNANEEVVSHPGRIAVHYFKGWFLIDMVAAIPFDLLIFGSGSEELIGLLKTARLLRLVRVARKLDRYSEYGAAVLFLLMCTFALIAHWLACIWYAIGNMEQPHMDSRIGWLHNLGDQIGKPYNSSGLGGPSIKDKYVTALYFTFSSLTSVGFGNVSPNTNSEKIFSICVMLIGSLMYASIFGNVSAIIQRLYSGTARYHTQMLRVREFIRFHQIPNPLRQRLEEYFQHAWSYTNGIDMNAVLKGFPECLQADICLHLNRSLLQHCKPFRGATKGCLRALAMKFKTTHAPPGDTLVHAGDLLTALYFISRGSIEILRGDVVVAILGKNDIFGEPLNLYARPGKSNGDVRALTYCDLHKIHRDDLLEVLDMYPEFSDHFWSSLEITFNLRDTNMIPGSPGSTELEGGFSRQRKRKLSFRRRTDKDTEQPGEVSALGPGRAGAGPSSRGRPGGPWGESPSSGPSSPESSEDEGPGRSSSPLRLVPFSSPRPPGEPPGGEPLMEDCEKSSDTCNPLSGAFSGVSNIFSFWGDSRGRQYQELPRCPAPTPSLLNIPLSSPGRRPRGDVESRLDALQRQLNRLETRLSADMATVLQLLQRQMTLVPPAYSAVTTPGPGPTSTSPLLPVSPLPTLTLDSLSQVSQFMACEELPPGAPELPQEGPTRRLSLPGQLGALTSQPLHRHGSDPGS

SMILES: COc1ccc([C@H]2CC(=O)c3cc(OC)cc(OC)c32)cc1
- inhibition [1]: < 10%
- Activity (Mus musculus [2]): Dde
- Activity (Mus musculus [3]): 58.2%
- Activity (Mus musculus [4]): 70.1%
- Activity (Mus musculus [5]): 46.9%
- inhibition (RAW264.7): Dde
- Activity (Mus musculus [6]): Dde
- Activity (Mus musculus [7]): 13.6%
- Activity (Mus musculus [8]): 58.2%
- AUC(0-inf) [9]: 8.63 µg·h/mL
- Activity (Mus musculus [10]): 61.9%
- MRT inf [11]: 7.32 h
- Activity (Mus musculus [12]): 44.5%
- IC50 [13]: > 30 µM
- Activity [14]: Non-Toxic
- inhibition (Mus musculus [15]): Dde
- Activity (Mus musculus [16]): 22.7%
- Cmax [17]: 2.29 µg/mL
- inhibition (Mus musculus [18]): Dde
- Activity (Mus musculus [19]): 56.1%
- AUC [20]: 16.991 µg·h/mL
- Activity (Mus musculus [21]): Dde
- Activity (Mus musculus [22]): 53.5%
